Data reported in patent US20110251379A1, “COMPOUNDS USEFUL FOR TREATING NEURODEGENERATIVE DISORDERS” (Satori Pharmaceuticals, Inc., priority 2010, published 2011).
pIC50: −log10 of the molar value. Read-outs that look alike come from different tables or passages of the source.

Tested on: amyloid-beta (1-42) peptide
Assay: ELISA assay of amyloid-beta (1-42) in conditioned media of 2B7 cells
Assay type: cell-based
Details: for % Inhibition (range) / inhibition at 20 µM: Aβ-42, 20 umol/L; for pIC50: Aβ-42, 2B7 cells, 5 hours, read-out: IC50 range; for inhibition at 10 µM: Aβ-42, 10 umol/L; for inhibition at 10 µM / inhibition at 100 µM / inhibition at 20 µM: read-out: % Inhibition (range); for inhibition at 100 µM: Aβ-42, 100 umol/L
In short: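 2B7 cells were treated with compounds for 5 hours at 37° C in media with 1% DMSO. Conditioned media, diluted 1:2 in blocking buffer, went into a sandwich ELISA with 6E10 capture and an HRP-labelled detection antibody, read by TMB at 450 nm. Values came from an Aβ peptide standard curve.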

For CC1CC(C(O)C(C)(C)O)OC2C1C1(C)CCC34CC35CCC(OC3CN(C6CCOC6)CCO3)C(C)(C)C5CCC4C1(C)C2O (single isomer, unassigned) [drawing 1106], the “% Inhibition (range)” value was “E (% inhibition of 25-75%)”.

CC1CC(CO)OC2C1C1(C)CCC34CC35CCC(OC3OCC(O)C(O)C3O)C(C)(C)C5CCC4C1(C)C2O (stereo not shown) [drawing 782] was tested, and the “% Inhibition (range)” value was “E (% inhibition of 25-75%)” and the pIC50 was under 5.00.

Work on CC1CC(CO)OC2C1C1(C)CCC34CC35CCC(OC3OCC(O)C(O)C3O)C(C)(C)C5CCC4C1(C)C2O (stereo not shown) [drawing 783] yielded a pIC50 of 5.00 to 6.00.

With CC(=O)OC(C1CC(C)C2C(O1)C(O)C1(C)C3CCC4C(C)(C)C(OC5CN(S(C)(=O)=O)CCO5)CCC45CC35CCC21C)C(C)(C)O (stereo not shown) [drawing 785] the pIC50 was at least 6.00.

For CC(=O)OC(C1CC(C)C2C(O1)C(O)C1(C)C3CCC4C(C)(C)C(OC(=O)C5CNC5)CCC45CC35CCC21C)C(C)(C)O (stereo not shown) [drawing 791], the pIC50 was at least 6.00.

CC(=O)OCC1CC(C)C2C(O1)C(O)C1(C)C3CCC4C(C)(C)C(OC5OCC(O)C(O)C5O)CCC45CC35CCC21C (stereo not shown) [drawing 792] showed a pIC50 of 5.00 to 6.00.

Work on CC(=O)N(Cc1ccccc1)CC1CC(C)C2C(O1)C(O)C1(C)C3CCC4C(C)(C)C(O)CCC45CC35CCC21C (stereo not shown) [drawing 801] yielded a pIC50 of 5.00 to 6.00.

For CC1CC(C(=O)O)OC2C1C1(C)CCC34CC35CCC(O)C(C)(C)C5CCC4C1(C)C2O (stereo not shown) [drawing 803], the pIC50 was under 5.00.

Compound CCC(=O)OC(C1CC(C)C2C(O1)C(O)C1(C)C3CCC4C(C)(C)C(OC5CN(C6COC6)CCO5)CCC45CC35CCC21C)C(C)(C)O (stereo not shown) [drawing 805] has a pIC50 of at least 6.00.

For CC(=O)OCC1CC(C)C2C(O1)C(O)C1(C)C3CCC4C(C)(C)C(OC(=O)c5cccnc5)CCC45CC35CCC21C (stereo not shown) [drawing 832], the pIC50 was 5.00 to 6.00.

In the case of CC(=O)N(Cc1cc(F)cc(F)c1)CC1CC(C)C2C(O1)C(O)C1(C)C3CCC4C(C)(C)C(O)CCC45CC35CCC21C (stereo not shown) [drawing 839], the pIC50 was at least 6.00.

For CC(=O)N(Cc1ccccn1)CC1CC(C)C2C(O1)C(O)C1(C)C3CCC4C(C)(C)C(O)CCC45CC35CCC21C (stereo not shown) [drawing 841], the pIC50 was 5.00 to 6.00.

For CC(=O)N(CC1CC(C)C2C(O1)C(O)C1(C)C3CCC4C(C)(C)C(O)CCC45CC35CCC21C)C(C)c1ccccc1 (stereo not shown) [drawing 844], the pIC50 was over 5.00.

In the case of CC(=O)N(CC1CC(C)C2C(O1)C(O)C1(C)C3CCC4C(C)(C)C(O)CCC45CC35CCC21C)C(C)C (stereo not shown) [drawing 845], the pIC50 was 5.00 to 6.00.

Work on CC(=O)N(CC1CC(C)C2C(O1)C(O)C1(C)C3CCC4C(C)(C)C(O)CCC45CC35CCC21C)C(C)c1ccccc1 (stereo not shown) [drawing 851] yielded a pIC50 of 5.00 to 6.00.

In the case of CC1CC(C(OC(=O)C2CC2)C(C)(C)O)OC2C1C1(C)CCC34CC35CCC(O)C(C)(C)C5CCC4C1(C)C2O (stereo not shown) [drawing 853], the pIC50 was at least 6.00.

Work on CC(=O)N(Cc1cc(F)cc(F)c1)CC1CC(C)C2C(O1)C(O)C1(C)C3CCC4C(C)(C)C(OC(=O)C5CNC5)CCC45CC35CCC21C (stereo not shown) [drawing 856] yielded a pIC50 of 5.00 to 6.00.

Compound CC1CC(C(OC(=O)C2CCC2)C(C)(C)O)OC2C1C1(C)CCC34CC35CCC(O)C(C)(C)C5CCC4C1(C)C2O (stereo not shown) [drawing 859] has a pIC50 of at least 6.00.

CC1CC(C(OC(=O)N(C)C)C(C)(C)O)OC2C1C1(C)CCC34CC35CCC(O)C(C)(C)C5CCC4C1(C)C2O (stereo not shown) [drawing 862] gave a pIC50 of under 5.00.

In the case of CC1CC(C(=O)C(C)(C)O)OC2C1C1(C)CCC34CC35CCC(O)C(C)(C)C5CCC4C1(C)C2O (stereo not shown) [drawing 864], the pIC50 was under 5.00.

CC1CC(C(OC(=O)C2CCC2)C(C)(C)O)OC2C1C1(C)CCC34CC35CCC(OC3CN(C6COC6)CCO3)C(C)(C)C5CCC4C1(C)C2O (stereo not shown) [drawing 865] showed a pIC50 of under 5.00.

Work on CC(C)C(=O)OC(C1CC(C)C2C(O1)C(O)C1(C)C3CCC4C(C)(C)C(OC5CN(C6COC6)CCO5)CCC45CC35CCC21C)C(C)(C)O (stereo not shown) [drawing 866] yielded a pIC50 of under 5.00.

In the case of C[C@@H]1C[C@H]([C@H](O)C(C)(C)O)OC2C1[C@@]1(C)CC[C@@]34C[C@@]35CC[C@H](O)C(C)(C)[C@@H]5CC[C@H]4[C@]1(C)[C@H]2O (stereo partly shown) [drawing 887], the inhibition at 10 µM was under 25% and the pIC50 was 5.00 to 6.00.

Work on C[C@@H]1C[C@H]([C@H](O)C(C)(C)O)OC2C1[C@@]1(C)CC[C@@]34C[C@@]35CC[C@H](O)C(C)(C)[C@@H]5CC[C@H]4[C@]1(C)[C@H]2O (stereo partly shown) [drawing 888] yielded an inhibition at 100 µM of 25 to 75%.

C[C@@H]1C[C@H]([C@H](O)C(C)(C)O)OC2C1[C@@]1(C)CC[C@@]34C[C@@]35CC[C@H](O)C(C)(C)[C@@H]5CC[C@H]4[C@]1(C)[C@H]2O (stereo partly shown) [drawing 889] was tested, and the inhibition at 20 µM was under 25% and the pIC50 was under 5.00.

In the case of C[C@@H]1C[C@H]([C@H](O)C(C)(C)O)OC2C1[C@@]1(C)CC[C@@]34C[C@@]35CC[C@H](O)C(C)(C)[C@@H]5CC[C@H]4[C@]1(C)[C@H]2O (stereo partly shown) [drawing 890], the “% Inhibition (range)” value was “E (% inhibition of 25-75%)”.

CC(=O)O[C@@H]([C@H]1C[C@@H](C)C2C(O1)[C@H](O)[C@@]1(C)[C@@H]3CC[C@H]4C(C)(C)[C@@H](O[C@@H]5OC[C@@H](O)[C@H](O)[C@H]5O)CC[C@@]45C[C@@]35CC[C@]21C)C(C)(C)O (stereo partly shown) [drawing 891] was tested, and the pIC50 (5 h) was at least 6.00.

Compound C[C@@H]1C[C@H]([C@H](O)C(C)(C)O)OC2C(=O)[C@@]3(C)[C@@H]4CC[C@H]5C(C)(C)[C@@H](O)CC[C@@]56C[C@@]46CC[C@]3(C)C21 (stereo partly shown) [drawing 893] has an inhibition at 10 µM of under 25%.

In the case of C[C@@H]1C[C@H]([C@H](O)C(C)(C)O)OC2C(=O)[C@@]3(C)[C@@H]4CC[C@H]5C(C)(C)[C@@H](O)CC[C@@]56C[C@@]46CC[C@]3(C)C21 (stereo partly shown) [drawing 894], the inhibition at 100 µM was 25 to 75%.

In the case of CC(=O)O[C@@H]([C@H]1C[C@@H](C)C2C(O1)C(=O)[C@@]1(C)[C@@H]3CC[C@H]4C(C)(C)[C@@H](O[C@@H]5OC[C@@H](O)[C@H](O)[C@H]5O)CC[C@@]45C[C@@]35CC[C@]21C)C(C)(C)O (stereo partly shown) [drawing 895], the pIC50 (5 h) was under 6.00.

Work on CC(=O)O[C@@H]([C@H]1C[C@@H](C)C2C(O1)[C@H](O)[C@@]1(C)[C@@H]3CC[C@H]4C(C)(C)[C@@H](O)CC[C@@]45C[C@@]35CC[C@]21C)C(C)(C)O (stereo partly shown) [drawing 897] yielded a pIC50 (5 h) of at least 6.00.

For CCC(=O)O[C@@H]([C@H]1C[C@@H](C)C2C(O1)[C@H](O)[C@@]1(C)[C@@H]3CC[C@H]4C(C)(C)[C@@H](O)CC[C@@]45C[C@@]35CC[C@]21C)C(C)(C)O (stereo partly shown) [drawing 908], the pIC50 (5 h) was under 5.00 and the inhibition at 100 µM was 25 to 75%.

In the case of CC(=O)OCC1C[C@@H](C)C2C(O1)[C@H](O)[C@@]1(C)[C@@H]3CC[C@H]4C(C)(C)[C@@H](O)CC[C@@]45C[C@@]35CC[C@]21C (stereo partly shown) [drawing 923], the inhibition at 20 µM was under 25%.

CC(=O)O[C@@H]([C@H]1C[C@@H](C)C2C(O1)[C@H](O)[C@@]1(C)[C@@H]3CC[C@H]4C(C)(C)[C@H](O)CC[C@@]45C[C@@]35CC[C@]21C)C(C)(C)O (stereo partly shown) [drawing 925] was tested, and the pIC50 (5 h) was at least 6.00.

For CO[C@@H]1[C@@H](OC)[C@H](O[C@H]2CC[C@]34C[C@]35CC[C@]3(C)C6C(O[C@@H]([C@H](OC(C)=O)C(C)(C)O)C[C@H]6C)[C@H](O)[C@@]3(C)[C@@H]5CC[C@H]4C2(C)C)OC[C@H]1OC (stereo partly shown) [drawing 937], the pIC50 was over 5.00.

For CO[C@@H]1[C@@H](OC)[C@H](O[C@H]2CC[C@]34C[C@]35CC[C@]3(C)C6C(O[C@@H]([C@H](OC(C)=O)C(C)(C)O)C[C@H]6C)[C@H](O)[C@@]3(C)[C@@H]5CC[C@H]4C2(C)C)OC[C@H]1OC (stereo partly shown) [drawing 938], the pIC50 was at least 6.00.

Compound CC(=O)O[C@@H]([C@H]1C[C@@H](C)C2C(O1)[C@H](O)[C@@]1(C)[C@@H]3CC[C@H]4C(C)(C)[C@@H](OC5CN(CC(N)=O)CCO5)CC[C@@]45C[C@@]35CC[C@]21C)C(C)(C)O (stereo partly shown) [drawing 942] has a pIC50 (5 h) of at least 6.00.

CC(=O)O[C@@H]([C@H]1C[C@@H](C)C2C(O1)[C@H](O)[C@@]1(C)[C@@H]3CC[C@H]4C(C)(C)[C@H](O)CC[C@@]45C[C@@]35CC[C@]21C)C(C)(C)O (stereo partly shown) [drawing 944] gave a pIC50 of 5.00 to 6.00.

In the case of CC(=O)O[C@@H]([C@H]1C[C@@H](C)C2C(O1)[C@H](O)[C@@]1(C)[C@@H]3CC[C@H]4C(C)(C)[C@@H](OC5CN(CC(=O)N(C)C)CCO5)CC[C@@]45C[C@@]35CC[C@]21C)C(C)(C)O (stereo partly shown) [drawing 947], the pIC50 (5 h) was at least 6.00.

With CC(=O)O[C@@H]([C@H]1C[C@@H](C)C2C(O1)[C@H](O)[C@@]1(C)[C@@H]3CC[C@H]4C(C)(C)[C@@H](OC(=O)c5cccnc5)CC[C@@]45C[C@@]35CC[C@]21C)C(C)(C)O (stereo partly shown) [drawing 951] the pIC50 (5 h) was at least 6.00.

CC(=O)O[C@@H]([C@H]1C[C@@H](C)[C@H]2[C@H](O1)[C@H](O)[C@@]1(C)[C@@H]3CC[C@H]4C(C)(C)C(OC(N)=O)CC[C@@]45C[C@@]35CC[C@]21C)C(C)(C)O (stereo partly shown) [drawing 964] gave a pIC50 (5 h) of at least 6.00.

Compound CC(=O)O[C@@H]([C@H]1C[C@@H](C)[C@H]2[C@H](O1)C(=O)[C@@]1(C)[C@@H]3CC[C@H]4C(C)(C)[C@@H](O[C@H]5CN(CC(N)=O)CCO5)CC[C@@]45C[C@@]35CC[C@]21C)C(C)(C)O [drawing 969] has a pIC50 (5 h) of at least 6.00.
